The values below come from PubChem BioAssay AID328 (DTP/NCI, 2004).

The assay deals with BDF1 mice, P388 leukemia ip, median survival T/C. Nature of the assay: NCI In Vivo Anticancer Drug Screen. Data for tumor model P388 Leukemia (intraperitoneal) in B6D2F1 (BDF1) mice. The note with it: endpoint: median survival time, higher = longer survival. The procedure, abridged:
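T/C = treated-group survival ÷ vehicle-control survival; tumour transplanted into mice before dosing.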

[1] abbreviates: dose: 6.25 mg/kg/injection, schedule: Q04DX003 (ip), vehicle: water.
Where [2] appears, read: dose: 12.5 mg/kg/injection, schedule: Q04DX003 (ip), vehicle: water.
Setting [3] is: dose: 25.0 mg/kg/injection, schedule: Q01DX009 (ip), vehicle: water.
Setting [4] is: dose: 25.0 mg/kg/injection, schedule: Q04DX003 (ip), vehicle: water.
Where [5] appears, read: dose: 50.0 mg/kg/injection, schedule: Q01DX009 (ip), vehicle: water.
Setting [6] is: dose: 100.0 mg/kg/injection, schedule: Q04DX003 (ip), vehicle: Klucel (hydroxypropylcellulose) (HPC).
Setting [7] is: dose: 200.0 mg/kg/injection, schedule: Q04DX003 (ip), vehicle: Klucel (hydroxypropylcellulose) (HPC).
Setting [8] is: dose: 50.0 mg/kg/injection, schedule: Q04DX003 (ip), vehicle: saline with Tween-80.
Setting [9] is: dose: 100.0 mg/kg/injection, schedule: Q04DX003 (ip), vehicle: saline with Tween-80.
Where [10] appears, read: dose: 200.0 mg/kg/injection, schedule: Q04DX003 (ip), vehicle: saline with Tween-80.
The mark [11] stands for this setting: dose: 50.0 mg/kg/injection, schedule: Q01DX009 (ip), vehicle: saline with Tween-80.
[12] abbreviates: dose: 100.0 mg/kg/injection, schedule: Q01DX009 (ip), vehicle: saline with Tween-80.
Setting [13] is: dose: 200.0 mg/kg/injection, schedule: Q01DX009 (ip), vehicle: saline with Tween-80.
Setting [14] is: dose: 50.0 mg/kg/injection, schedule: Q01DX009 (ip), vehicle: Klucel (hydroxypropylcellulose) (HPC).
The mark [15] stands for this setting: dose: 100.0 mg/kg/injection, schedule: Q01DX009 (ip), vehicle: Klucel (hydroxypropylcellulose) (HPC).
[16] abbreviates: dose: 200.0 mg/kg/injection, schedule: Q01DX009 (ip), vehicle: Klucel (hydroxypropylcellulose) (HPC).
The mark [17] stands for this setting: dose: 25.0 mg/kg/injection, schedule: Q01DX009 (ip), vehicle: saline with Tween-80.
[18] abbreviates: dose: 400.0 mg/kg/injection, schedule: Q04DX003 (ip), vehicle: saline with Tween-80.
Setting [19] is: dose: 400.0 mg/kg/injection, schedule: Q01DX009 (ip), vehicle: saline with Tween-80.

Several values for one entry are separate records, joined by “and”; a condition that tells them apart may be missing. Identical values can stand only once. Inconclusive results and toxic doses are left out.

Consider `CCCCNC(C)(C)CCl`, for which the T/C was 95 % of control (dose: 1.56 mg/kg/injection, schedule: Q01DX009 (ip), vehicle: water); 102 % of control (dose: 3.12 mg/kg/injection, schedule: Q01DX009 (ip), vehicle: water); 106 % of control (dose: 3.12 mg/kg/injection, schedule: Q04DX003 (ip), vehicle: water); 88 % of control under setting [1]; 95 % of control (dose: 12.5 mg/kg/injection, schedule: Q01DX009 (ip), vehicle: water); 106 % of control under setting [2]. In addition, the T/C runs as follows: under setting [3], 111 % of control; under setting [4], 100 % of control and 106 % of control; under setting [5], 104 % of control.

For `O=Cc1ccc(N2CCCCC2)cc1`, the T/C under setting [6] was 91 % of control and the T/C under setting [7] was 95 % of control.

Take `CC[C@H]1CN2CCc3cc(OC)c(OC)cc3[C@@H]2C[C@@H]1C[C@H]1NCCc2cc(O)c(OC)cc21`: the T/C is 159 % of control (dose: 0.25 mg/kg/injection, schedule: Q01DX010 (ip), vehicle: saline); 150 % of control (dose: 0.5 mg/kg/injection, schedule: Q01DX010 (ip), vehicle: saline); 150 % of control and 190 % of control (dose: 2.0 mg/kg/injection, schedule: Q01DX010 (ip), vehicle: saline); 95 % of control (dose: 8.0 mg/kg/injection, schedule: Q01DX010 (ip), vehicle: saline).

For the compound `N=c1ccn2c(n1)OC1C(O)C(CO)OC12` (stereo not given), the T/C is, setting by setting: (dose: 39.0 mg/kg/injection, schedule: Q01DX008 (ip), vehicle: water) 173 % of control; (dose: 65.0 mg/kg/injection, schedule: Q01DX008 (ip), vehicle: water) 99 % of control; (dose: 108.0 mg/kg/injection, schedule: Q01DX008 (ip), vehicle: water) 224 % of control; (dose: 180.0 mg/kg/injection, schedule: Q01DX008 (ip), vehicle: water) 207 % of control; (dose: 300.0 mg/kg/injection, schedule: Q01DX008 (ip), vehicle: water) 213 % of control; (dose: 500.0 mg/kg/injection, schedule: Q01DX008 (ip), vehicle: water) 225 % of control.

On to `C1=CCONC1`, for which the T/C runs as follows: under setting [8], 99 % of control; under setting [9], 104 % of control; (dose: 100.0 mg/kg/injection, schedule: Q04DX003 (ip), vehicle: saline) 103 % of control; under setting [10], 100 % of control; (dose: 200.0 mg/kg/injection, schedule: Q04DX003 (ip), vehicle: saline) 120 % of control; (dose: 400.0 mg/kg/injection, schedule: Q04DX003 (ip), vehicle: saline) 93 % of control.

For the compound `O=C1Oc2ccccc2C(=O)/C1=C1/C=C(c2ccccc2)SS1`, the T/C is, setting by setting: under setting [11], 90 % of control; under setting [12], 88 % of control; under setting [13], 90 % of control.

Consider `CCOC(=O)C(C)Cl` (stereo not given), for which the T/C under setting [14] is 104 % of control; the T/C under setting [15] was 100 % of control; the T/C under setting [6] was 110 % of control; the T/C under setting [16] was 91 % of control; the T/C under setting [7] is 105 % of control; the T/C (dose: 400.0 mg/kg/injection, schedule: Q04DX003 (ip), vehicle: Klucel (hydroxypropylcellulose) (HPC)) was 105 % of control.

As for `CN1CCc2ccccc2C1Cc1ccccc1NC(=O)c1sc2ccccc2c1Cl` (stereo not given), the T/C by setting is: under setting [14], 86 % of control; under setting [15], 91 % of control; under setting [16], 89 % of control.

For `COC1(c2ccc(Br)cc2)OC1(C)C` (stereo not given), the T/C is 101 % of control under setting [1]; 94 % of control under setting [2]; 110 % of control under setting [3]; 101 % of control under setting [4]; 112 % of control under setting [5]; 97 % of control (dose: 50.0 mg/kg/injection, schedule: Q04DX003 (ip), vehicle: water). Moreover, the T/C is 100 % of control (dose: 100.0 mg/kg/injection, schedule: Q01DX009 (ip), vehicle: water); 86 % of control (dose: 100.0 mg/kg/injection, schedule: Q04DX003 (ip), vehicle: water); 110 % of control (dose: 200.0 mg/kg/injection, schedule: Q01DX009 (ip), vehicle: water); 124 % of control (dose: 400.0 mg/kg/injection, schedule: Q01DX009 (ip), vehicle: water).

As for `Fc1ccc(NC2=NCCN=C(Nc3ccc(F)cc3)SS2)cc1`, the T/C by setting is: under setting [11], 96 % of control; under setting [12], 87 % of control; under setting [13], 102 % of control.

Turning to `CCCCCCCCCCCCCCCCCS(=O)S(=O)O` (stereo not given), the T/C by setting is: (dose: 89.0 mg/kg/injection, schedule: Q01DX009 (ip), vehicle: saline with Tween-80) 116 % of control; under setting [15], 116 % of control; (dose: 132.0 mg/kg/injection, schedule: Q01DX009 (ip), vehicle: Klucel (hydroxypropylcellulose) (HPC)) 109 % of control; under setting [16], 119 % of control; (dose: 300.0 mg/kg/injection, schedule: Q01DX009 (ip), vehicle: Klucel (hydroxypropylcellulose) (HPC)) 122 % of control.

With `Cc1ccccc1P(=O)(c1ccccc1)c1ccccc1C`, the T/C runs as follows: under setting [17], 90 % of control; under setting [11], 96 % of control; under setting [12], 87 % of control.

For `CC1(C)OC2C=CC3C(OC(=O)C3(C)Cl)C2O1` (stereo not given), the T/C runs as follows: (dose: 50.0 mg/kg/injection, schedule: Q04DX002 (ip), vehicle: saline with Tween-80) 112 % of control and 114 % of control; (dose: 100.0 mg/kg/injection, schedule: Q04DX002 (ip), vehicle: saline with Tween-80) 99 % of control and 103 % of control and 104 % of control; (dose: 200.0 mg/kg/injection, schedule: Q04DX002 (ip), vehicle: saline with Tween-80) 103 % of control and 104 % of control; (dose: 400.0 mg/kg/injection, schedule: Q04DX002 (ip), vehicle: saline with Tween-80) 99 % of control and 101 % of control (2×).

For `Clc1ccc(CN2COc3c(ccc4cccnc34)C2)cc1Cl`, the T/C was 104 % of control under setting [8]; 104 % of control and 118 % of control under setting [9]; 109 % of control under setting [10]; 120 % of control under setting [18].

`Cc1ccc(-c2cc(C)n(C)[n+]2C)cc1`: the T/C is 108 % of control (dose: 12.5 mg/kg/injection, schedule: Q01DX009 (ip), vehicle: saline with Tween-80) and 110 % of control under setting [17].

Take `Cc1ccc(S(=O)(=O)/N=C/NN(C)C)cc1`: the T/C runs as follows: under setting [11], 97 % of control; under setting [12], 112 % of control; under setting [13], 98 % of control.

Consider `Cc1cc2nccc(/C=C/c3ccc(N(C)C)cc3)c2cc1C`, for which the T/C by setting is: under setting [11], 112 % of control; under setting [12], 120 % of control; under setting [13], 98 % of control.

On to `COCCc1ccncc1`, for which the T/C is, setting by setting: under setting [12], 101 % of control; under setting [13], 97 % of control.

As to `COc1ccc(C(=O)CC(C(=O)O)c2ccc(OC)c(OC)c2)cc1OC` (stereo not given), the T/C is 104 % of control under setting [12], 104 % of control under setting [13] and 100 % of control under setting [19].

Regarding `Cc1cc(N(CCO)CCO)c2cc3ccc4cccc5ccc(c2n1)c3c45`, the T/C (dose: 25.0 mg/kg/injection, schedule: Q04DX003 (ip), vehicle: saline with Tween-80) was 98 % of control; the T/C under setting [8] was 110 % of control; the T/C under setting [9] was 93 % of control and 100 % of control.

As for `CN(C)c1ccc2cc(S(=O)(=O)O)cc(O)c2c1`, the T/C was 95 % of control under setting [12], 91 % of control under setting [13] and 91 % of control under setting [19].

For the compound `CN(C)c1ccc(/C=C2\C=Cc3ccccc32)cc1`, the T/C runs as follows: (dose: 3.12 mg/kg/injection, schedule: Q04DX003 (ip), vehicle: saline with Tween-80) 90 % of control; (dose: 6.25 mg/kg/injection, schedule: Q04DX003 (ip), vehicle: saline with Tween-80) 90 % of control; (dose: 12.5 mg/kg/injection, schedule: Q04DX003 (ip), vehicle: saline with Tween-80) 92 % of control and 100 % of control; under setting [17], 100 % of control; under setting [11], 103 % of control; under setting [12], 96 % of control and 100 % of control. Further, the T/C is 90 % of control under setting [13] and 96 % of control under setting [18].
